The source of these data is patent US20250115628A1, “FLUORINATED FLUOROPHORES” (HOWARD HUGHES MEDICAL INSTITUTE, priority 2023, published 2025).

Values joined by “and” are separate entries in the source; they are usually repeats but may differ in a detail not shown here. Equal entries are not always repeated. Where two headings read alike, the source gives them in different places.

Data set [1] is described as follows: Quantum yield determination. It counts as physicochemical. The settings on record: 10 mM HEPES, pH 7.3. As for the experimental part: All reported absolute fluorescence quantum yield values (Φf) were measured using a Quantaurus-QY spectrometer (model C11374, Hamamatsu). This instrument uses an integrating sphere to determine photons absorbed and emitted by a sample. Measurements were carried out using dilute samples (A<0.1), and self-absorption corrections were performed using the instrument software.^81

Data set [2] in a line: Determination of KL-Z (lactone-zwitterion equilibrium constant). Format: physicochemical. Details: key: KL-Z = (εdw/εmax)/(1−εdw/εmax); εdw measured in 1:1 dioxane/water. The settings on record: 1:1 dioxane:H2O. The procedure: KL-Z was calculated using the following equation:^16, 18 KL-Z=(εdw/εmax)/(1−εdw/εmax). εdw is the extinction coefficient of the dyes in a 1:1 (v/v) dioxane/water solvent mixture; this dioxane/water mixture was chosen to give the maximum spread of KL-Z values across all classes of rhodamines.^18 εmax refers to the maximal extinction coefficients measured in different solvent mixtures empirically determined depending on dye type: 0.1% v/v trifluoroacetic acid in ethanol for 18, 20, 29, 34, 36, 70-72, 81-83, 93-95, 99-102, and 104; 0.1% v/v trifluoroacetic acid in 2,2,2^−trifluoroethanol for all other rhodamine variants. A accurate determination of low KL-Z values is complicated by the relatively poor sensitivity of absorbance measurements.

Data set [3] in a line: General UV-vis and fluorescence spectroscopy. Format: physicochemical. The settings on record: 10 mM HEPES, pH 7.3. As for the experimental part:
Spectroscopy was performed using 1^−cm path length, 3.5^−mL quartz cuvettes or 1^−cm path length, 1.4^−mL semi-micro quartz cuvettes from Starna Cells. All measurements were taken at ambient temperature (22±2° C.). Absorption spectra were recorded on a Cary Model 100 spectrometer (Agilent), and fluorescence spectra were recorded on a Cary Eclipse fluorometer (Varian). The spectra, maximum absorption wavelength (labs), extinction coefficient at λabs (8), and maximum emission wavelength (em) were measured in 10 mM HEPES, pH 7.3 buffer (rhodamines and Malachite Green derivative 49) or 0.1 M NaOH (fluoresceins); the reported values for e are averages (n=3). Normalized spectra are shown for clarity.

The conditions of data set [4]: rhodamine derivatives; 10 mM HEPES, pH 7.3; data from the inventors' published work; cited from earlier work.

In the case of `[2H]C1([2H])N(c2ccc3c(-c4c(F)c(F)c(F)c(F)c4C(=O)[O-])c4ccc(=[N+]5C([2H])([2H])C([2H])([2H])C([2H])([2H])C5([2H])[2H])cc-4oc3c2)C([2H])([2H])C([2H])([2H])C1([2H])[2H]` [compound 8, JFX576], the Φf in data set [1] (rhodamine derivatives) is 0.71. Further, in data set [2] (rhodamine derivatives), the KL-Z was 7.50. Moreover, in data set [3] (rhodamine derivatives), the ε is listed as 124,000 M^−1cm^−1, the λabs is 576 nm and the λem was determined as 597 nm.
The corresponding values for `N=c1ccc2c(-c3c(F)c(F)c(F)c(F)c3C(=O)O)c3ccc(N)cc3oc-2c1` [compound 70, 4,5,6,7^−Tetrafluoro-rhodamine 110] are 0.64, 9.81, 84,500 M^−1cm^−1, 516 nm and 536 nm.
Turning to `CC1=CC(C)(C)N(C)c2cc3c(cc21)C(c1c(F)c(F)c(F)c(F)c1C(=O)[O-])=c1cc2c(cc1O3)=[N+](C)C(C)(C)C=C2C` [compound 11, 2,3,4,5^−Tetrafluoro-6^−(1,2,2,4,8,10,10,11^−octamethyl-1,2,10,11-tetrahydropyrano[3,2^−g:5,6^−g]diquinolin-13^−ium-6^−yl)benzoate], in data set [1] (quinolinyl rhodamines), the Φf is on record as 0.68. Moreover, the KL-Z in data set [2] (quinolinyl rhodamines) was found to be 7.88. In addition, in data set [3] (quinolinyl rhodamines), the ε is 121,000 M^−1cm^−1, the λabs worked out at 610 nm and the λem came out at 630 nm.
Consider `CCc1cc2c(c3c1=[N+](C)CCC3)[Si](C)(C)c1c(cc3c4c1CCCN4CCC3)C=2c1c(F)c(F)c(F)c(F)c1C(=O)[O-]` [compound 31, JF698], for which, in data set [1] (rhodamine derivatives), the Φf was 0.28. Further, in data set [3] (rhodamine derivatives), the ε is given as 147,000 M^−1cm^−1, the λabs was determined as 698 nm and the λem was found to be 712 nm.
With `O=C([O-])c1c(F)c(F)c(F)c(F)c1-c1c2cc3c(cc2[o+]c2cc4c(cc12)CCCN4)NCCC3` [compound 14, 4,5,6,7^−Tetrafluoro-Q-rhodamine], the Φf in data set [1] (rhodamine derivatives) was 0.80. The compound further returned a KL-Z in data set [2] (rhodamine derivatives) of 8.57. Besides, in data set [3] (rhodamine derivatives), the ε is 118,000 M^−1cm^−1, the λabs is 558 nm and the λem amounted to 576 nm.
As for `CC1CC(C)(C)Nc2cc3c(cc21)C(c1c(F)c(F)c(F)c(F)c1C(=O)O)=c1cc2c(cc1O3)=NC(C)(C)CC2C` (mixture of isomers) [compound 18, JF563], in data set [1] (quinolinyl rhodamines), the Φf worked out at 0.73. This compound also gave a KL-Z in data set [2] (quinolinyl rhodamines) of 15.3. Also, in data set [3] (quinolinyl rhodamines), the ε is 125,000 M^−1cm^−1, the λabs is given as 563 nm and the λem came out at 581 nm.
For the compound `CC1=CC(C)(C)Nc2cc3c(cc21)C(c1ccccc1C(=O)O)=c1cc2c(cc1[Si]3(C)C)=NC(C)(C)C=C2C` [compound 102, 2^−(2,2,4,8,10,10,13,13-Octamethyl-2,10,11,13-tetrahydrosilino[3,2^−g:5,6^−g]diquinolin-6^−ylium-6(1H)-yl)-benzoate], the KL-Z in data set [2] (quinolinyl rhodamines) was found to be 0.0143. Also, in data set [3] (quinolinyl rhodamines), the ε is given as 4,800 M^−1cm^−1, the λabs was 686 nm and the λem was found to be 711 nm.
Take `[2H]C1([2H])N(c2ccc3c(c2)[Si](C)(C)C2=CC(=[N+]4C([2H])([2H])C([2H])([2H])C([2H])([2H])C4([2H])[2H])C=CC2=C3c2c(F)c(F)c(F)c(F)c2C(=O)[O-])C([2H])([2H])C([2H])([2H])C1([2H])[2H]` [compound 25, JFX673]: the Φf in data set [1] (rhodamine derivatives) came to 0.42. For the same compound, in data set [2] (rhodamine derivatives), the KL-Z turned out to be 1.56. Also, in data set [3] (rhodamine derivatives), the ε is listed as 156,000 M^−1cm^−1, the λabs is 673 nm and the λem was found to be 690 nm.
`C=C/C=C(C=C)/[N+](C)=C1\C=CC2=C(c3c(F)c(F)c(F)c(F)c3C(=O)[O-])c3ccc(N(C)c4ccccc4)cc3C(C)(C)C2=C1` [compound 65, JQ645]: the KL-Z in data set [2] (rhodamine derivatives) came out at 0.344. Further, in data set [3] (rhodamine derivatives), the ε is recorded as 2,700 M^−1cm^−1 and the λabs was found to be 645 nm.
In the case of `CC1CC(C)(C)Nc2cc3c(cc21)C(c1c(F)c(F)c(F)c(F)c1C(=O)O)=c1cc2c(cc1[Si]3(C)C)=NC(C)(C)CC2C` (centres unmarked) [compound 34, 2,3,4,5^−Tetrafluoro-6^−(2,2,4,8,10,10,13,13^−octamethyl-2,3,4,8,9,10,11,13^−octahydrosilino[3,2^−g:5,6^−g]diquin-olin-6^−ylium-6(1H)-yl)benzoate], the Φf in data set [1] (quinolinyl rhodamines) came to 0.28. Further, the KL-Z in data set [2] (quinolinyl rhodamines) is listed as 1.90. Moreover, in data set [3] (quinolinyl rhodamines), the ε is reported as 129,000 M^−1cm^−1, the λabs was 660 nm and the λem was 676 nm.
Regarding `CCC1=CC2=C(c3c(F)c(F)c(F)c(F)c3C(=O)O)c3cc4c(cc3[Si](C)(C)C2=CC1=NC)NCCC4` [compound 29, 4,5,6,7^−Tetrafluoro-Si-Q-rhodamine], the Φf in data set [1] (rhodamine derivatives) is reported as 0.25. Besides, the KL-Z in data set [2] (rhodamine derivatives) amounted to 2.39. Also, in data set [3] (rhodamine derivatives), the ε is reported as 124,000 M^−1cm^−1; the λabs was 659 nm and 689 nm; the λem is given as 675 nm.
Regarding `CC1(C)C2=CC(=N)C=CC2=C(c2c(F)c(F)c(F)c(F)c2C(=O)O)c2ccc(N)cc21` [compound 71, 4,5,6,7^−Tetrafluoro-carborhodamine 110], in data set [1] (rhodamine derivatives), the Φf amounted to 0.53. Besides, the KL-Z in data set [2] (rhodamine derivatives) is 0.832. Also, in data set [3] (rhodamine derivatives), the ε is listed as 96,400 M^−1cm^−1, the λabs was found to be 575 nm and the λem is given as 597 nm.
Compound `CN1CCc2cc3c(cc21)[Si](C)(C)c1cc2c(cc1=C3c1c(F)c(F)c(F)c(F)c1C(=O)[O-])CC[N+]=2C` [compound 108, SiRF712] registered a Φf in data set [1] (rhodamine derivatives) of 0.09. The compound also came in with a KL-Z in data set [2] (rhodamine derivatives) of 1.97. In data set [3] (rhodamine derivatives), the ε was 98,800 M^−1cm^−1, the λabs was 712 nm and the λem is given as 735 nm.
Consider `CCC1=CC2=C(c3c(F)c(F)c(F)c(F)c3C(=O)O)c3cc4c(cc3C(C)(C)C2=CC1=NC)NCCC4` [compound 47, 4,5,6,7^−Tetrafluoro-carbo-Q-rhodamine], for which the Φf in data set [1] (rhodamine derivatives) was 0.37. Moreover, in data set [2] (rhodamine derivatives), the KL-Z was determined as 10.8. Besides, in data set [3] (rhodamine derivatives), the ε is 124,000 M^−1cm^−1, the λabs was found to be 621 nm and the λem worked out at 638 nm.
The corresponding values for `O=C([O-])c1c(F)c(F)c(F)c(F)c1C1=c2cc3c4c(c2Oc2c1cc1c5c2CCCN5CCC1)CCC[N+]=4CCC3` [compound 16, 4,5,6,7^−Tetrafluoro-rhodamine 101] are 0.67, 13.4, 110,000 M^−1cm^−1, 597 nm and 616 nm.
The corresponding values for `CCc1cc2c(c3c1=[N+](C)CCC3)C(C)(C)c1cc3c(cc1C=2c1c(F)c(F)c(F)c(F)c1C(=O)[O-])C(C)CC(C)(C)N3CC` (centres unmarked) [compound 59, JF657] are 0.50, 4.97, 137,000 M^−1cm^−1, 657 nm and 672 nm.
As to `CC1=CC(C)(C)N(C)c2cc3c(cc21)C(c1ccccc1C(=O)[O-])=c1cc2c(cc1[Si]3(C)C)=[N+](C)C(C)(C)C=C2C` [compound 104, 2^−(1,2,2,4,8,10,10,11,13,13^−Decamethyl-2,10,11,13-tetrahydrosilino[3,2^−g:5,6^−g′]diquinolin-6^−ylium-6(1H)-yl)-benzoate], the KL-Z in data set [2] (quinolinyl rhodamines) is 0.0045. In addition, in data set [3] (quinolinyl rhodamines), the ε was 1,200 M^−1cm^−1, the λabs was 720 nm and the λem came to 740 nm.
For `CC1=CC(C)(C)N(C)c2cc3c(cc21)C(c1c(F)c(F)c(F)c(F)c1C(=O)[O-])=c1cc2c(cc1[Si]3(C)C)=[N+](C)C(C)(C)C=C2C` [compound 38, 2^−(1,2,2,4,8,10,10,11,13,13^−Decamethyl-2,10,11,13-tetrahydrosilino[3,2^−g:5,6^−g]diquinolin-6^−ylium-6(1H)-yl)-3,4,5,6^−tetrafluorobenzoate] the same measures were 0.3251, 5,700 M^−1cm^−1, 754 nm and 774 nm.
For `CC1=CC(C)(C)Nc2cc3c(cc21)C(c1c(F)c(F)c(F)c(F)c1C(=O)O)=c1cc2c(cc1[Si]3(C)C)=NC(C)(C)C=C2C` [compound 36, 2,3,4,5^−Tetrafluoro-6^−(2,2,4,8,10,10,13,13^−octamethyl-2,10,11,13-tetrahydrosilino[3,2^−g:5,6^−g]diquinolin-6^−ylium-6(1H)-yl)benzoate] the same measures were 1.09, 85,900 M^−1cm^−1, 713 nm and 742 nm.
As to Si-Q-rhodamine [compound 95], the λabs in data set [4] is 637 nm.
